Assay results from patent US9556170B2, “Substituted-1H-benzo[d]imidazole series compounds as lysine-specific demethylase 1 (LSD1) inhibitors” (University of Utah, priority 2013, dated 2017).

Target: LSD1 (Homo sapiens (Human), UniProt O60341)
Assay: LSD1 histone demethylase assay (LSD1 Inhibitor Screening Assay Kit, Cayman Chemical)
Format: biochemical
Conditions: H2O2/resorufin fluorescence readout, dimethyl K4 H3 peptide substrate
Description: Recombinant (expressed in baculovirus infected BTI insect cells) monoamine oxidase A and monoamine oxidase B (Catalog No. M7316 and M7441, respectively) were purchased from Sigma-Aldrich Co. LLC. (St. Louis, Mo.). MAO-Glo™ Assay Kit was purchased from Promega Corporation (Madison, Wis.). ATPlite™ Luminescence Assay System (e.g. Catalog No. V1401) was purchased from PerkinElmer Inc. (Waltham, Mass.).
IC50 values are determined using GraphPad Prism 5 software. The data were entered as an X-Y plot into the software as percent inhibition for each concentration of the drug. The concentration values of the drug were log transformed and the nonlinear regression was carried out using the “sigmoidal dose-response (variable slope)” option within the GraphPad software to model the data and calculate IC50 values.

IC50 [µM]	Structure (SMILES)
0.273	CN1CCN(S(=O)(=O)c2ccc3[nH]c(Nc4cc(Cl)ccc4O)nc3c2)CC1 [Compound 2, 4-chloro-2-((5-((4-methylpiperazin-1-yl)sulfonyl)-1H-benzo[d]imidazol-2-yl)amino)phenol]
0.081	O=S(=O)(c1ccc2[nH]c(Nc3cc(Cl)ccc3O)nc2c1)N1CCNCC1 [Compound 3]
